Measurements taken from ChEMBL document CHEMBL1201862, “PubChem BioAssay data set” (2004).
Calls of active or inactive are those of the source. No stated cut-off is given here; in the data, active = IC50 of 10 µM or less and inactive = more.

How the values were obtained:
[1] = molecular target: Neuropeptides B/W receptor type 1 (Homo sapiens, UniProt P48145); assay: GPR7 antagonist potency, late-stage follow-up, cell-based, fluorescence, dose response, set 5 (AID 588566); type: functional
[2] = molecular target: Melanin-concentrating hormone receptor 1 (Homo sapiens, UniProt Q99705); assay: Late-stage fluorescence-based counterscreen for antagonists of the G-protein coupled receptor 7 (GPR7): cell-based dose response assay to identify antagonists of the melanin-concentrating hormone receptor 1 (MCHR1) Set 5.; type: functional
Chain of Melanin-concentrating hormone receptor 1 (Q99705 whole entry): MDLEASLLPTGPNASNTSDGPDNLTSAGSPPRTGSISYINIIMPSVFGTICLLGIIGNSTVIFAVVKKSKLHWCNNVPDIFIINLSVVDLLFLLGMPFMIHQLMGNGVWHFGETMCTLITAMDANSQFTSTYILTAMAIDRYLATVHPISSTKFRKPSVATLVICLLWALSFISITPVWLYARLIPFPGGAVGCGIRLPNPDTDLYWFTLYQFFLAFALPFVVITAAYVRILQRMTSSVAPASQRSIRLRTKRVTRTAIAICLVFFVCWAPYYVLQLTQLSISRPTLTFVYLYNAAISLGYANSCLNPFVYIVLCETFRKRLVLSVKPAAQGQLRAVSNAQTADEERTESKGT

Chain of Neuropeptides B/W receptor type 1 (P48145 whole entry): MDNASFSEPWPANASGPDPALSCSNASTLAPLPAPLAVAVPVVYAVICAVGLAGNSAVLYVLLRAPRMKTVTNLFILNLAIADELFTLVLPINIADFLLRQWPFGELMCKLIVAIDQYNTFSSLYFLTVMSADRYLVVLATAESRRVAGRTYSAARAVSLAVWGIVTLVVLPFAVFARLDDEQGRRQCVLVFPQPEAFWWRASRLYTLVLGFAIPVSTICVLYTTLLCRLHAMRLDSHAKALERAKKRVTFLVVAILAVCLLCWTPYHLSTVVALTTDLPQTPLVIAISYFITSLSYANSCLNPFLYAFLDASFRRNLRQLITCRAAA

Question: `COc1ccc(Oc2c(Cl)cnn(Cc3ccccc3C#N)c2=O)cc1` was tested. Which IC50 [1] did it give?
Answer: Its IC50 is 1.45 µM (active).

Question: What about the IC50 [2] of the same compound?
Answer: Its IC50 is 11.4 µM (inactive).
